Converted amounts (≈) assume the structure as drawn. Read-outs that look alike come from different tables or passages of the source.
Columns and labels:
[1] = tested on: S. aureus GC 1079; test: MIC, broth microdilution; details: Staphylococcus aureus, GC1079, S. aureus GC 1079
[2] = tested on: S. pneumoniae* GC 4465; test: MIC, broth microdilution; details: Streptococcus pneumoniae, S. pneumoniae* GC 4465
[3] = tested on: E. coli GC 2272; test: MIC, broth microdilution; details: Escherichia coli, GC2272, E. coli GC 2272
[4] = tested on: S. typhimurium GC 2172; test: MIC, broth microdilution; details: Salmonella enterica, TYPHIMURIUM, S. typhimurium GC 2172
[5] = tested on: E. coli GC 2233; test: MIC, broth microdilution; details: Escherichia coli, GC2233, E. coli GC 2233
[6] = tested on: E. coli GC 2235; test: MIC, broth microdilution; details: Escherichia coli, GC2235, E. coli GC 2235
[7] = tested on: S. aureus GC 6467; test: MIC, broth microdilution; details: Staphylococcus aureus, GC6467, S. aureus GC 6467
[8] = tested on: E. coli GC 6465; test: MIC, broth microdilution; details: Escherichia coli, GC6465, E. coli GC 6465
[9] = tested on: E. coli GC 2203; test: MIC, broth microdilution; details: Escherichia coli, GC2203, E. coli GC 2203
Protocol: (§1) Antimicrobial susceptibility testing. The in vitro activities of the antibiotics are determined by the broth microdilution method as recommended by the National Committee for Clinical Laboratory Standards (NCCLS) (1). Mueller-Hinton II broth (MHBII)(BBL Cockeysville, Md.) is the medium employed in the testing procedures. Microtiter plates containing serial dilutions of each antimicrobial agent are inoculated with each organism to yield the appropriate density (10^5 CFU/ml) in a 100 μl final volume. The plates are incubated for 18-22 hours at 35° C. in ambient air. […] Standard Pharmacological Test Procedures
(§2) Presented in Tables I-XIII are representative compounds of Formula I which were evaluated against a panel of 40 selected gram-positive and gram-negative bacteria strains by pre-incubation in water, mouse serum or human serum. Representative compounds were first incubated in mouse serum for an hour prior to the in vitro testing against a panel of selected gram-positive and gram-negative bacteria strains. All compounds were also pre-incubated in water for an hour prior to testing as control. Representative compounds of Formula I were incubated in human serum prior to MIC determination.

[10] = tested on: E. coli GC 2236; test: MIC, broth microdilution; details: Escherichia coli, GC2236, E. coli GC 2236
Protocol: as §1, §2

[11] = tested on: E. faecium GC 4556; test: MIC, broth microdilution; details: Enterococcus faecium, GC4556, E. faecium GC 4556
[12] = tested on: E. faecalis GC 2267; test: MIC, broth microdilution; details: Enterococcus faecalis, GC2267, E. faecalis GC 2267
[13] = tested on: E. coli GC 4560; test: MIC, broth microdilution; details: Escherichia coli, GC4560, E. coli GC 4560
[14] = tested on: E. coli GC 2234; test: MIC, broth microdilution; details: Escherichia coli, GC2234, E. coli GC 2234
[15] = tested on: E. coli GC 2231; test: MIC, broth microdilution; details: Escherichia coli, GC2231, E. coli GC 2231
[16] = tested on: Staph.; test: Range of MIC for Staph. strains, including MRSA; details: Staphylococcus aureus, MRSA
[17] = tested on: S. epidermidis GC 4935; test: MIC, broth microdilution; details: Staphylococcus epidermidis, GC4935, S. epidermidis GC 4935
[18] = tested on: S. aureus GC 1131; test: MIC, broth microdilution; details: Staphylococcus aureus, GC1131, S. aureus GC 1131
[19] = tested on: E. faecalis GC 4555; test: MIC, broth microdilution; details: Enterococcus faecalis, GC4555, E. faecalis GC 4555
[20] = tested on: S. aureus GC 6466; test: MIC, broth microdilution; details: Staphylococcus aureus, GC6466, S. aureus GC 6466
[21] = read-out: Range of MIC, Staph (Mouse Serum)
[22] = read-out: Range of MIC, Staph (Water)
[23] = read-out: Range of MIC, Staph. (mouse serum)
[24] = read-out: Range of MIC, Staph. (water)

CCCN(CC(=O)Nc1cc(N(C)C)c2c(c1O)C(=O)C1=C(O)[C@]3(O)C(=O)C(C(N)=O)=C(O)[C@@H](N(C)C)[C@@H]3C[C@@H]1C2)C(=O)OCOC(=O)C1CCC1 [Example 7, ({[(2-{[(5aR,6aS,7S,10aS)-9-(aminocarbonyl)-4,7-bis(dimethylamino)-1,8,10a,11-tetrahydroxy-10,12-dioxo-5,5a,6,6a,7,10,10a,12-octahydrotetracen-2-yl]amino}-2-oxoethyl)(propyl)amino]carbonyl}oxy)methyl cyclobutanecarboxylate]
MIC ([1]; Mouse Serum pre-incubation): 1 µg/mL (≈ 1.37 µM)
MIC ([1]; Water pre-incubation): 4 µg/mL (≈ 5.5 µM)
MIC ([2]; Mouse Serum pre-incubation): 0.25 µg/mL (≈ 0.344 µM)
MIC ([2]; Water pre-incubation): 0.12 µg/mL (≈ 0.165 µM)
MIC ([3]; Mouse Serum pre-incubation): 0.5 µg/mL (≈ 0.687 µM)
MIC ([3]; Water pre-incubation): 4 µg/mL (≈ 5.5 µM)
MIC ([4]; Mouse Serum pre-incubation): 4 µg/mL (≈ 5.5 µM)
MIC ([4]; Water pre-incubation): > 64 µg/mL
MIC ([5]; Mouse Serum pre-incubation): 0.5 µg/mL (≈ 0.687 µM)
MIC ([5]; Water pre-incubation): 4 µg/mL (≈ 5.5 µM)
MIC ([6]; Mouse Serum pre-incubation): 0.5 µg/mL (≈ 0.687 µM)
MIC ([6]; Water pre-incubation): 4 µg/mL (≈ 5.5 µM)
MIC ([7]; Mouse Serum pre-incubation): 4 µg/mL (≈ 5.5 µM)
MIC ([7]; Water pre-incubation): 4 µg/mL (≈ 5.5 µM)
MIC ([8]; Mouse Serum pre-incubation): 16 µg/mL (≈ 22 µM)
MIC ([8]; Water pre-incubation): > 64 µg/mL
MIC ([9]; Mouse Serum pre-incubation): 0.5 µg/mL (≈ 0.687 µM)
MIC ([9]; Water pre-incubation): 4 µg/mL (≈ 5.5 µM)
MIC ([10]; Mouse Serum pre-incubation): 0.25 µg/mL (≈ 0.344 µM)
MIC ([10]; Water pre-incubation): 2 µg/mL (≈ 2.75 µM)
MIC ([11]; Mouse Serum pre-incubation): 0.5 µg/mL (≈ 0.687 µM)
MIC ([11]; Water pre-incubation): 1 µg/mL (≈ 1.37 µM)
MIC ([12]; Mouse Serum pre-incubation): 1 µg/mL (≈ 1.37 µM)
MIC ([12]; Water pre-incubation): 2 µg/mL (≈ 2.75 µM)
MIC ([13]; Mouse Serum pre-incubation): 0.25 µg/mL (≈ 0.344 µM)
MIC ([13]; Water pre-incubation): 0.5 µg/mL (≈ 0.687 µM)
MIC ([14]; Mouse Serum pre-incubation): 1 µg/mL (≈ 1.37 µM)
MIC ([14]; Water pre-incubation): 4 µg/mL (≈ 5.5 µM)
MIC ([15]; Mouse Serum pre-incubation): 2 µg/mL (≈ 2.75 µM)
MIC ([15]; Water pre-incubation): 16 µg/mL (≈ 22 µM)
MIC [16, 21]: 0.5 to 4 µg/mL (≈ 0.687 to 5.5 µM)
MIC [16, 22]: 0.5 to 4 µg/mL (≈ 0.687 to 5.5 µM)
MIC [16, 23]: 0.5 to 4 µg/mL (≈ 0.687 to 5.5 µM)
MIC [16, 24]: 0.5 to 4 µg/mL (≈ 0.687 to 5.5 µM)
MIC ([17]; Mouse Serum pre-incubation): 2 µg/mL (≈ 2.75 µM)
MIC ([17]; Water pre-incubation): 2 µg/mL (≈ 2.75 µM)
MIC ([18]; Mouse Serum pre-incubation): 1 µg/mL (≈ 1.37 µM)
MIC ([18]; Water pre-incubation): 1 µg/mL (≈ 1.37 µM)
MIC ([19]; Mouse Serum pre-incubation): 0.5 µg/mL (≈ 0.687 µM)
MIC ([19]; Water pre-incubation): 1 µg/mL (≈ 1.37 µM)
MIC ([20]; Mouse Serum pre-incubation): 0.5 µg/mL (≈ 0.687 µM)
MIC ([20]; Water pre-incubation): 0.5 µg/mL (≈ 0.687 µM)

CCCN(CC(=O)Nc1cc(N(C)C)c2c(c1O)C(=O)C1=C(O)[C@]3(O)C(=O)C(C(N)=O)=C(O)[C@@H](N(C)C)[C@@H]3C[C@@H]1C2)C(=O)OCOC(=O)c1ccc(F)cc1 [Example 8, ({[(2-{[(5aR,6aS,7S,10aS)-9-(aminocarbonyl)-4,7-bis(dimethylamino)-1,8,10a,11-tetrahydroxy-10,12-dioxo-5,5a,6,6a,7,10,10a,12-octahydrotetracen-2-yl]amino}-2-oxoethyl)(propyl)amino]carbonyl}oxy)methyl 4-fluorobenzoate]
MIC ([1]; Mouse Serum pre-incubation): 2 µg/mL (≈ 2.6 µM)
MIC ([1]; Water pre-incubation): 4 µg/mL (≈ 5.21 µM)
MIC ([2]; Mouse Serum pre-incubation): < 0.06 µg/mL
MIC ([2]; Water pre-incubation): 0.25 µg/mL (≈ 0.326 µM)
MIC ([3]; Mouse Serum pre-incubation): 1 µg/mL (≈ 1.3 µM)
MIC ([3]; Water pre-incubation): 32 µg/mL (≈ 41.7 µM)
MIC ([4]; Mouse Serum pre-incubation): 8 µg/mL (≈ 10.4 µM)
MIC ([4]; Water pre-incubation): > 64 µg/mL
MIC ([5]; Mouse Serum pre-incubation): 1 µg/mL (≈ 1.3 µM)
MIC ([5]; Water pre-incubation): 32 µg/mL (≈ 41.7 µM)
MIC ([6]; Mouse Serum pre-incubation): 1 µg/mL (≈ 1.3 µM)
MIC ([6]; Water pre-incubation): 16 µg/mL (≈ 20.8 µM)
MIC ([7]; Mouse Serum pre-incubation): 4 µg/mL (≈ 5.21 µM)
MIC ([7]; Water pre-incubation): 8 µg/mL (≈ 10.4 µM)
MIC ([8]; Mouse Serum pre-incubation): 8 µg/mL (≈ 10.4 µM)
MIC ([8]; Water pre-incubation): > 64 µg/mL
MIC ([9]; Mouse Serum pre-incubation): 1 µg/mL (≈ 1.3 µM)
MIC ([9]; Water pre-incubation): 32 µg/mL (≈ 41.7 µM)
MIC ([10]; Mouse Serum pre-incubation): 1 µg/mL (≈ 1.3 µM)
MIC ([10]; Water pre-incubation): 32 µg/mL (≈ 41.7 µM)
MIC ([11]; Mouse Serum pre-incubation): 1 µg/mL (≈ 1.3 µM)
MIC ([11]; Water pre-incubation): 4 µg/mL (≈ 5.21 µM)
MIC ([12]; Mouse Serum pre-incubation): 2 µg/mL (≈ 2.6 µM)
MIC ([12]; Water pre-incubation): 8 µg/mL (≈ 10.4 µM)
MIC ([13]; Mouse Serum pre-incubation): 0.5 µg/mL (≈ 0.651 µM)
MIC ([13]; Water pre-incubation): 4 µg/mL (≈ 5.21 µM)
MIC ([14]; Mouse Serum pre-incubation): 1 µg/mL (≈ 1.3 µM)
MIC ([14]; Water pre-incubation): 32 µg/mL (≈ 41.7 µM)
MIC ([15]; Mouse Serum pre-incubation): 2 µg/mL (≈ 2.6 µM)
MIC ([15]; Water pre-incubation): > 64 µg/mL
MIC [16, 21]: 0.5 to 4 µg/mL (≈ 0.651 to 5.21 µM)
MIC [16, 22]: 1 to 8 µg/mL (≈ 1.3 to 10.4 µM)
MIC [16, 23]: 0.5 to 4 µg/mL (≈ 0.651 to 5.21 µM)
MIC [16, 24]: 1 to 8 µg/mL (≈ 1.3 to 10.4 µM)
MIC ([17]; Mouse Serum pre-incubation): 2 µg/mL (≈ 2.6 µM)
MIC ([17]; Water pre-incubation): 8 µg/mL (≈ 10.4 µM)
MIC ([18]; Mouse Serum pre-incubation): 1 µg/mL (≈ 1.3 µM)
MIC ([18]; Water pre-incubation): 2 µg/mL (≈ 2.6 µM)
MIC ([19]; Mouse Serum pre-incubation): 0.5 µg/mL (≈ 0.651 µM)
MIC ([19]; Water pre-incubation): 8 µg/mL (≈ 10.4 µM)
MIC ([20]; Mouse Serum pre-incubation): 0.5 µg/mL (≈ 0.651 µM)
MIC ([20]; Water pre-incubation): 1 µg/mL (≈ 1.3 µM)

Source: patent US20070049564A1 (Wyeth, priority 2005, published 2007)
